BindingDB's records for doi:10.1046/j.1471-4159.1996.67010058.x (Cns Research, 1996)
Values joined by “and” are separate entries in the source; they are usually repeats but may differ in a detail not shown here. Identical values can stand only once.

Tests used:
[1] = molecular target: Metabotropic glutamate receptor 2 (Homo sapiens, UniProt Q14416)
[2] = molecular target: Metabotropic glutamate receptor 1 (Homo sapiens, UniProt Q13255)
[3] = molecular target: Metabotropic glutamate receptor 3 (Homo sapiens, UniProt Q14832)
Metabotropic glutamate receptor 3, sequence (Q14832 whole entry): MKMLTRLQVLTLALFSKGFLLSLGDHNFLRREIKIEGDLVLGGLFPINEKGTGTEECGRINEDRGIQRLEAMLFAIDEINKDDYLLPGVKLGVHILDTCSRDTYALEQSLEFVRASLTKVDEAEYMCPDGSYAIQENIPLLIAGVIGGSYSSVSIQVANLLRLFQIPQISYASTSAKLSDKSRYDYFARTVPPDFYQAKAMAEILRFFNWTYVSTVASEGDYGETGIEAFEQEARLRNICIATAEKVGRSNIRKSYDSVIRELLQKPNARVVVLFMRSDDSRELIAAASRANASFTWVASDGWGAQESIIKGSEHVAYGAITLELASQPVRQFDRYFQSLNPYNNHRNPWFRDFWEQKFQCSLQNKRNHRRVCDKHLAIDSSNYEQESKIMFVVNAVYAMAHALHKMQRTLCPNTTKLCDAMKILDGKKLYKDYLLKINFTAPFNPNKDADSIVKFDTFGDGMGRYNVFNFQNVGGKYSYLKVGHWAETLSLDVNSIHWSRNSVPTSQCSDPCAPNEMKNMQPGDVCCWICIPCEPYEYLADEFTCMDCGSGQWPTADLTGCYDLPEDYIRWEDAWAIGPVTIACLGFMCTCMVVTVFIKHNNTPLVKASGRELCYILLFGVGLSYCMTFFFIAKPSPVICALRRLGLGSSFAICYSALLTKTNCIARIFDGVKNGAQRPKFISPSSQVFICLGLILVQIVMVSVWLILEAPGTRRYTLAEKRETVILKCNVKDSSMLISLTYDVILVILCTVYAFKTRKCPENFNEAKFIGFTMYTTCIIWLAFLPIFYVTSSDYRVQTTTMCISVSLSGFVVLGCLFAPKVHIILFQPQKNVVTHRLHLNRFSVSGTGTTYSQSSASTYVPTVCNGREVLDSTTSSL

Metabotropic glutamate receptor 2, sequence (Q14416 whole entry): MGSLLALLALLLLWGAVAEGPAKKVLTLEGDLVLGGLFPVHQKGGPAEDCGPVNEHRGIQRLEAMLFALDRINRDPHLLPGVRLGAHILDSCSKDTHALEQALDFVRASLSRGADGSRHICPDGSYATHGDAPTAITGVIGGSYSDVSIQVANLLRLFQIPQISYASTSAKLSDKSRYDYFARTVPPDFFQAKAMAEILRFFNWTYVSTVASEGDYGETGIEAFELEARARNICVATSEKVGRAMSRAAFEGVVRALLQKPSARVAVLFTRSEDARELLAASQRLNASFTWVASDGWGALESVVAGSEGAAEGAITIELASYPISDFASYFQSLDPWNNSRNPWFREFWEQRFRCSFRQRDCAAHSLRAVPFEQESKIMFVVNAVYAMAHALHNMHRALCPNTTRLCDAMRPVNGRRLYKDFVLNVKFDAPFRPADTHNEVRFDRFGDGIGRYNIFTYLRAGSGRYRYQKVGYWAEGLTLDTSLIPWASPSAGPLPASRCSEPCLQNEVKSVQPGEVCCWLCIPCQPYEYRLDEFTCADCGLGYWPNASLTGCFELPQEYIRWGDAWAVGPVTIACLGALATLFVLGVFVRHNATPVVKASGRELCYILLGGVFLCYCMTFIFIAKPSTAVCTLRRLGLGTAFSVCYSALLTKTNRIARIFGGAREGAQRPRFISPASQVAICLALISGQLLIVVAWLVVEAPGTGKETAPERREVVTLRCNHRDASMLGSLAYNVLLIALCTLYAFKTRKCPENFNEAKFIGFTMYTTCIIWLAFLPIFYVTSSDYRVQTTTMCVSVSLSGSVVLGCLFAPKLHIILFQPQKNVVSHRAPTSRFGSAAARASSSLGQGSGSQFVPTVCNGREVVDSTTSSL
Metabotropic glutamate receptor 1, sequence (Q13255 whole entry): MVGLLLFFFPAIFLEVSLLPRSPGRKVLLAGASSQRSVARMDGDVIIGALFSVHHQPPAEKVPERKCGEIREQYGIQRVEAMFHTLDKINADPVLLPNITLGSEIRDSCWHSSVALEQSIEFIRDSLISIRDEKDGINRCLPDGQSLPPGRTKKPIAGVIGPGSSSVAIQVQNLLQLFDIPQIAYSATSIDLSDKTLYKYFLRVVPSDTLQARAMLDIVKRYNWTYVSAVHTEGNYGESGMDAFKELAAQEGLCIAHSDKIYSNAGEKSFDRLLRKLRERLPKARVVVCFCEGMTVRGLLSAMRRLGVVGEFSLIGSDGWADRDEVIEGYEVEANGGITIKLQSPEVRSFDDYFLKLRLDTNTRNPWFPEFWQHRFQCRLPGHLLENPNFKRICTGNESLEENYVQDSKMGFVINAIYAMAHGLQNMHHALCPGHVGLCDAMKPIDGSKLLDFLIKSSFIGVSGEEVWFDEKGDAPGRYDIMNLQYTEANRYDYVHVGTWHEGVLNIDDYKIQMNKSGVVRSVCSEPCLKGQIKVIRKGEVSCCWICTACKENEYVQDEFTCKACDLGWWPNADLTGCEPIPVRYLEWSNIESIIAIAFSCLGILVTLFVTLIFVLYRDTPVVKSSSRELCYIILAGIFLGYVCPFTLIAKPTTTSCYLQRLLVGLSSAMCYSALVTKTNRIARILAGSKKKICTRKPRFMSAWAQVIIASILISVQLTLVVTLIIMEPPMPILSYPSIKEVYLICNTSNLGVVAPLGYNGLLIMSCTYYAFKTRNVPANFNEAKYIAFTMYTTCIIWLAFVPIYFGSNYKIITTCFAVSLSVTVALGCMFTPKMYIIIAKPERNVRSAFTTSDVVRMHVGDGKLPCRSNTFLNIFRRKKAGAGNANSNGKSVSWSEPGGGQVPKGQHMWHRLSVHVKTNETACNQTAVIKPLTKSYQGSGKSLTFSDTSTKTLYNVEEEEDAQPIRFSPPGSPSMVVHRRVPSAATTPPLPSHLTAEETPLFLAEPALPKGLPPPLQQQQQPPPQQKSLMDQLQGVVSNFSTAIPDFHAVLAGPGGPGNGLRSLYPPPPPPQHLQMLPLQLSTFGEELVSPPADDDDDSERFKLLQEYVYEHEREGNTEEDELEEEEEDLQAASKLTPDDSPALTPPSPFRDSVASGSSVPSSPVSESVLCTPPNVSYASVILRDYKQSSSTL

SMILES	Ki [1] [µM]	Ki [2] [µM]	Ki [3]
N[C@@H](Cn1oc(=O)[nH]c1=O)C(=O)O [2-amino-3-(3,5-dioxo[1,2,4]oxadiazolidin-2-yl)propionic acid]	0.42		
N[C@H](C(=O)O)[C@H]1C[C@H]1C(=O)O [L-CCG-IV]	> 10	3.47	
N[C@@]1(C(=O)O)CC[C@H](C(=O)O)C1 [1S, 3R-ACPD]	> 10		> 10 µM and 5.4 µM
